According to patent publication US20230123334A1, “AMINO LIPID COMPOUND, PREPARATION METHOD THEREFOR, AND APPLICATION THEREOF” (SHENZHEN SHENXIN BIOTECHNOLOGY CO., LTD., priority 2020, published 2023):

tested on: HEK293 cells; test: Preliminary screening as DNA vectors, GFP transfection of HEK293 cells; type: cell-based; conditions: HEK293 cells; lipid/DOPE liposome with 75 ng plasmid DNA (psin-EGFP-IRES-Puro); number of cells expressing GFP divided by total number of nuclei (Hoechst)
Outline: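 Lipid + DOPE liposomes (NaOAc, pH 5.6) complexed w/ 75 ng psin-EGFP-IRES-Puro, 30 min RT; added to 3-5×10^4 HEK293/well, 37° C. Hoechst 0.2 μg/mL at 20-24 h, imaged after further 20-24 h. Efficiency = GFP+ cells / total nuclei.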

Structure (SMILES) | Absolute DNA transfection efficiency in HEK293 cells
CCCCCCCCCCCCCCCSc1nc(NCC2CCN(C)CC2)nc(SCCCCCCCCCCC)n1 [Compound S11S15D10] | 42.3%
CCCCCCCCCCCCCCCCSc1nc(NCCN(C)C)nc(SCCCCCCCCCCC)n1 [Compound S11S16D1] | 0.5%
CCCCCCCCCCCCCCCCSc1nc(NCCN2CCOCC2)nc(SCCCCCCCCCCC)n1 [Compound S11S16D2] | 0.0%
CCCCCCCCCCCCCCCCSc1nc(NCCN2CCCC2)nc(SCCCCCCCCCCC)n1 [Compound S11S16D3] | 6.2%
CCCCCCCCCCCCCCCCSc1nc(NCCN2CCCCC2)nc(SCCCCCCCCCCC)n1 [Compound S11S16D4] | 1.7%
CCCCCCCCCCCCCCCCSc1nc(NCCN2CCN(C)CC2)nc(SCCCCCCCCCCC)n1 [Compound S11S16D5] | 4.9%
CCCCCCCCCCCCCCCCSc1nc(NCCCN(C)C)nc(SCCCCCCCCCCC)n1 [Compound S11S16D6] | 2.7%
CCCCCCCCCCCCCCCCSc1nc(NCCN(CC)CC)nc(SCCCCCCCCCCC)n1 [Compound S11S16D7] | 2.2%
CCCCCCCCCCCCCCCCSc1nc(NCCCN2CCOCC2)nc(SCCCCCCCCCCC)n1 [Compound S11S16D8] | 4.7%
CCCCCCCCCCCCCCCCSc1nc(NCCCN2CCN(C)CC2)nc(SCCCCCCCCCCC)n1 [Compound S11S16D9] | 3.6%
CCCCCCCCCCCCCCCCSc1nc(NCC2CCN(C)CC2)nc(SCCCCCCCCCCC)n1 [Compound S11S16D10] | 49.0%
CCCCCCCCCCCCCCCCCCSc1nc(NCCN(C)C)nc(SCCCCCCCCCCC)n1 [Compound S11S18D1] | 0.6%
CCCCCCCCCCCCCCCCCCSc1nc(NCCN2CCOCC2)nc(SCCCCCCCCCCC)n1 [Compound S11S18D2] | 0.2%
CCCCCCCCCCCCCCCCCCSc1nc(NCCN2CCCC2)nc(SCCCCCCCCCCC)n1 [Compound S11S18D3] | 4.8%
CCCCCCCCCCCCCCCCCCSc1nc(NCCN2CCCCC2)nc(SCCCCCCCCCCC)n1 [Compound S11S18D4] | 3.3%
CCCCCCCCCCCCCCCCCCSc1nc(NCCN2CCN(C)CC2)nc(SCCCCCCCCCCC)n1 [Compound S11S18D5] | 1.7%
CCCCCCCCCCCCCCCCCCSc1nc(NCCCN(C)C)nc(SCCCCCCCCCCC)n1 [Compound S11S18D6] | 3.6%
CCCCCCCCCCCCCCCCCCSc1nc(NCCN(CC)CC)nc(SCCCCCCCCCCC)n1 [Compound S11S18D7] | 3.6%
CCCCCCCCCCCCCCCCCCSc1nc(NCCCN2CCOCC2)nc(SCCCCCCCCCCC)n1 [Compound S11S18D8] | 7.8%
CCCCCCCCCCCCCCCCCCSc1nc(NCCCN2CCN(C)CC2)nc(SCCCCCCCCCCC)n1 [Compound S11S18D9] | 0.9%
CCCCCCCCCCCCCCCCCCSc1nc(NCC2CCN(C)CC2)nc(SCCCCCCCCCCC)n1 [Compound S11S18D10] | 20.9%

Structure (SMILES) | Absolute DNA transfection efficiency in HEK293 cells
CCCCCCCCCCCCSc1nc(NCCN(C)C)nc(SCCCCCCCCCCCC)n1 [Compound S12S12D1] | 0.5%
CCCCCCCCCCCCSc1nc(NCCN2CCOCC2)nc(SCCCCCCCCCCCC)n1 [Compound S12S12D2] | 0.1%
CCCCCCCCCCCCSc1nc(NCCN2CCCC2)nc(SCCCCCCCCCCCC)n1 [Compound S12S12D3] | 2.1%
CCCCCCCCCCCCSc1nc(NCCN2CCCCC2)nc(SCCCCCCCCCCCC)n1 [Compound S12S12D4] | 4.1%
CCCCCCCCCCCCSc1nc(NCCN2CCN(C)CC2)nc(SCCCCCCCCCCCC)n1 [Compound S12S12D5] | 0.4%
CCCCCCCCCCCCSc1nc(NCCCN(C)C)nc(SCCCCCCCCCCCC)n1 [Compound S12S12D6] | 3.9%
CCCCCCCCCCCCSc1nc(NCCN(CC)CC)nc(SCCCCCCCCCCCC)n1 [Compound S12S12D7] | 3.3%
CCCCCCCCCCCCSc1nc(NCCCN2CCOCC2)nc(SCCCCCCCCCCCC)n1 [Compound S12S12D8] | 3.4%
CCCCCCCCCCCCSc1nc(NCCCN2CCN(C)CC2)nc(SCCCCCCCCCCCC)n1 [Compound S12S12D9] | 1.9%
CCCCCCCCCCCCSc1nc(NCC2CCN(C)CC2)nc(SCCCCCCCCCCCC)n1 [Compound S12S12D10] | 2.7%
CCCCCCCCCCCCCCSc1nc(NCCN(C)C)nc(SCCCCCCCCCCCC)n1 [Compound S12S14D1] | 0.6%
CCCCCCCCCCCCCCSc1nc(NCCN2CCOCC2)nc(SCCCCCCCCCCCC)n1 [Compound S12S14D2] | 0.1%
CCCCCCCCCCCCCCSc1nc(NCCN2CCCC2)nc(SCCCCCCCCCCCC)n1 [Compound S12S14D3] | 6.5%
CCCCCCCCCCCCCCSc1nc(NCCN2CCCCC2)nc(SCCCCCCCCCCCC)n1 [Compound S12S14D4] | 6.7%
CCCCCCCCCCCCCCSc1nc(NCCN2CCN(C)CC2)nc(SCCCCCCCCCCCC)n1 [Compound S12S14D5] | 0.2%
CCCCCCCCCCCCCCSc1nc(NCCCN(C)C)nc(SCCCCCCCCCCCC)n1 [Compound S12S14D6] | 4.0%
CCCCCCCCCCCCCCSc1nc(NCCN(CC)CC)nc(SCCCCCCCCCCCC)n1 [Compound S12S14D7] | 3.3%
CCCCCCCCCCCCCCSc1nc(NCCCN2CCOCC2)nc(SCCCCCCCCCCCC)n1 [Compound S12S14D8] | 3.7%
CCCCCCCCCCCCCCSc1nc(NCCCN2CCN(C)CC2)nc(SCCCCCCCCCCCC)n1 [Compound S12S14D9] | 0.8%
CCCCCCCCCCCCCCSc1nc(NCC2CCN(C)CC2)nc(SCCCCCCCCCCCC)n1 [Compound S12S14D10] | 6.5%

tested on: HEK293 cells; test: Preliminary screening as mRNA vectors, EGFP mRNA transfection of HEK293 cells; type: cell-based; conditions: HEK293 cells, 96-well plates, EGFP mRNA 50 ng per well; percentage of GFP fluorescent cells relative to total number of cells (Hoechst)
Outline: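 Each well of HEK293 cells received 50 ng of EGFP mRNA. Efficiency was expressed as percent GFP-expressing cells over Hoechst-defined total cell number.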

Structure (SMILES) | Absolute mRNA transfection efficiency in HEK293 cells
CCCCCCCCCCCCCCCSc1nc(NCC2CCN(C)CC2)nc(SCCCCCCCCCCC)n1 [Compound S11S15D10] | 75.9%
CCCCCCCCCCCCCCCCSc1nc(NCCN(C)C)nc(SCCCCCCCCCCC)n1 [Compound S11S16D1] | 2.4%
CCCCCCCCCCCCCCCCSc1nc(NCCN2CCOCC2)nc(SCCCCCCCCCCC)n1 [Compound S11S16D2] | 0.1%
CCCCCCCCCCCCCCCCSc1nc(NCCN2CCCC2)nc(SCCCCCCCCCCC)n1 [Compound S11S16D3] | 0.7%
CCCCCCCCCCCCCCCCSc1nc(NCCN2CCCCC2)nc(SCCCCCCCCCCC)n1 [Compound S11S16D4] | 0.2%
CCCCCCCCCCCCCCCCSc1nc(NCCN2CCN(C)CC2)nc(SCCCCCCCCCCC)n1 [Compound S11S16D5] | 5.1%
CCCCCCCCCCCCCCCCSc1nc(NCCCN(C)C)nc(SCCCCCCCCCCC)n1 [Compound S11S16D6] | 9.3%
CCCCCCCCCCCCCCCCSc1nc(NCCN(CC)CC)nc(SCCCCCCCCCCC)n1 [Compound S11S16D7] | 0.5%
CCCCCCCCCCCCCCCCSc1nc(NCCCN2CCOCC2)nc(SCCCCCCCCCCC)n1 [Compound S11S16D8] | 0.9%
CCCCCCCCCCCCCCCCSc1nc(NCCCN2CCN(C)CC2)nc(SCCCCCCCCCCC)n1 [Compound S11S16D9] | 16.4%
CCCCCCCCCCCCCCCCSc1nc(NCC2CCN(C)CC2)nc(SCCCCCCCCCCC)n1 [Compound S11S16D10] | 89.2%
CCCCCCCCCCCCCCCCCCSc1nc(NCCN(C)C)nc(SCCCCCCCCCCC)n1 [Compound S11S18D1] | 2.7%
CCCCCCCCCCCCCCCCCCSc1nc(NCCN2CCOCC2)nc(SCCCCCCCCCCC)n1 [Compound S11S18D2] | 0.1%
CCCCCCCCCCCCCCCCCCSc1nc(NCCN2CCCC2)nc(SCCCCCCCCCCC)n1 [Compound S11S18D3] | 11.6%
CCCCCCCCCCCCCCCCCCSc1nc(NCCN2CCCCC2)nc(SCCCCCCCCCCC)n1 [Compound S11S18D4] | 1.4%
CCCCCCCCCCCCCCCCCCSc1nc(NCCN2CCN(C)CC2)nc(SCCCCCCCCCCC)n1 [Compound S11S18D5] | 3.8%
CCCCCCCCCCCCCCCCCCSc1nc(NCCCN(C)C)nc(SCCCCCCCCCCC)n1 [Compound S11S18D6] | 6.0%
CCCCCCCCCCCCCCCCCCSc1nc(NCCN(CC)CC)nc(SCCCCCCCCCCC)n1 [Compound S11S18D7] | 1.1%
CCCCCCCCCCCCCCCCCCSc1nc(NCCCN2CCOCC2)nc(SCCCCCCCCCCC)n1 [Compound S11S18D8] | 3.3%
CCCCCCCCCCCCCCCCCCSc1nc(NCCCN2CCN(C)CC2)nc(SCCCCCCCCCCC)n1 [Compound S11S18D9] | 0.3%
CCCCCCCCCCCCCCCCCCSc1nc(NCC2CCN(C)CC2)nc(SCCCCCCCCCCC)n1 [Compound S11S18D10] | 92.0%

Structure (SMILES) | Absolute mRNA transfection efficiency in HEK293 cells
CCCCCCCCCCCCSc1nc(NCCN(C)C)nc(SCCCCCCCCCCCC)n1 [Compound S12S12D1] | 0.6%
CCCCCCCCCCCCSc1nc(NCCN2CCOCC2)nc(SCCCCCCCCCCCC)n1 [Compound S12S12D2] | 0.0%
CCCCCCCCCCCCSc1nc(NCCN2CCCC2)nc(SCCCCCCCCCCCC)n1 [Compound S12S12D3] | 11.0%
CCCCCCCCCCCCSc1nc(NCCN2CCCCC2)nc(SCCCCCCCCCCCC)n1 [Compound S12S12D4] | 36.3%
CCCCCCCCCCCCSc1nc(NCCN2CCN(C)CC2)nc(SCCCCCCCCCCCC)n1 [Compound S12S12D5] | 3.1%
CCCCCCCCCCCCSc1nc(NCCCN(C)C)nc(SCCCCCCCCCCCC)n1 [Compound S12S12D6] | 2.6%
CCCCCCCCCCCCSc1nc(NCCN(CC)CC)nc(SCCCCCCCCCCCC)n1 [Compound S12S12D7] | 1.3%
CCCCCCCCCCCCSc1nc(NCCCN2CCOCC2)nc(SCCCCCCCCCCCC)n1 [Compound S12S12D8] | 3.8%
CCCCCCCCCCCCSc1nc(NCCCN2CCN(C)CC2)nc(SCCCCCCCCCCCC)n1 [Compound S12S12D9] | 1.3%
CCCCCCCCCCCCSc1nc(NCC2CCN(C)CC2)nc(SCCCCCCCCCCCC)n1 [Compound S12S12D10] | 12.8%
CCCCCCCCCCCCCCSc1nc(NCCN(C)C)nc(SCCCCCCCCCCCC)n1 [Compound S12S14D1] | 0.0%
CCCCCCCCCCCCCCSc1nc(NCCN2CCOCC2)nc(SCCCCCCCCCCCC)n1 [Compound S12S14D2] | 0.2%
CCCCCCCCCCCCCCSc1nc(NCCN2CCCC2)nc(SCCCCCCCCCCCC)n1 [Compound S12S14D3] | 6.3%
CCCCCCCCCCCCCCSc1nc(NCCN2CCCCC2)nc(SCCCCCCCCCCCC)n1 [Compound S12S14D4] | 14.0%
CCCCCCCCCCCCCCSc1nc(NCCN2CCN(C)CC2)nc(SCCCCCCCCCCCC)n1 [Compound S12S14D5] | 3.6%
CCCCCCCCCCCCCCSc1nc(NCCCN(C)C)nc(SCCCCCCCCCCCC)n1 [Compound S12S14D6] | 4.6%
CCCCCCCCCCCCCCSc1nc(NCCN(CC)CC)nc(SCCCCCCCCCCCC)n1 [Compound S12S14D7] | 0.9%
CCCCCCCCCCCCCCSc1nc(NCCCN2CCOCC2)nc(SCCCCCCCCCCCC)n1 [Compound S12S14D8] | 1.3%
CCCCCCCCCCCCCCSc1nc(NCCCN2CCN(C)CC2)nc(SCCCCCCCCCCCC)n1 [Compound S12S14D9] | 2.5%
CCCCCCCCCCCCCCSc1nc(NCC2CCN(C)CC2)nc(SCCCCCCCCCCCC)n1 [Compound S12S14D10] | 30.4%
